# From patent US20100204141A1, “USE OF BPP-B AS A THERAPEUTIC AGENT” (priority 2007, published 2010)
# Square brackets hold non-standard residues; d marks the D form. Peptide text beside a SMILES is read from it. pGlu = O=C1CC[C@@H](C(=O)O)N1
# How the values were obtained:
# HepG2-2.2.15 cells = assay: Cytotoxicity (dye uptake cell viability) in the HBV assay; assay type: cell-based; details: test peptide 10 micrograms per ml
# CEM-SS cells = assay: Cytotoxicity (MTS cell viability) in the HIV-1 assay; details: CEM-SS cells; test peptide 10 micrograms per ml; MTS
# HIV-1IIIB = assay: HIV-1 antiviral assay (CPE reduction, MTS) in CEM-SS cells; details: test peptide 10 micrograms per ml, 6 days post-infection
# [1] = Cytotoxicity (MTS cell viability) in the HIV-1 assay; details: human, CEM-SS cells (uninfected drug cytotoxicity wells)
# [2] = Cytotoxicity (dye uptake cell viability) in the HBV assay; assay type: cell-based; details: human, HepG2-2.2.15 cells (stable line containing HBV ayw genome), test peptide 10 micrograms per ml
# [3] = Cytotoxicity testing in MRC-5 cells (CellTiter 96); assay type: cell-based, human; details: human, MRC-5 cells (embryonal lung fibroblasts), 6 days incubation, read-out: % Cell viability
# Method: (§1) For cytotoxicity testing, MRC-5 cells were seeded at 2,500 cells/well in 96 well plates using growth medium. […] The following day, peptide was added and tested in duplicates. After a 6 days incubation period, cell viability was measured using CellTiter 96 Solution (Promega). Plates were incubated for additional 4 hours at 37° C.
# Pseudomonas aeruginosa = Pseudomonas aeruginosa assay; assay type: cell-based; details: Pseudomonas aeruginosa growth; peptide 10 micrograms per ml
# Method: (§2) The antibacterial assay was conducted using clear, U-bottom 96-well microtiter plates. Cation-adjusted Mueller-Hinton Broth (MHB) was used for testing Pseudomonas aeruginosa. The peptide of the invention (0.1 ml of each—10 micrograms per ml—) was dispensed into wells in duplicate. Then the wells were inoculated with 5×10^5 CFU/mL Pseudomonas aeruginosa in 0.1 ml volume. For control purposes, each plate included 4 wells containing media without bacterial inoculum and 4 wells containing medium with inoculum but without peptide. The plates were incubated for 12 h at 37° C., and read visually 18-24 hours post-incubation. Growth control of Pseudomonas aeruginosa was examined first to determine adequacy of media preparations and growth conditions. Acceptable growth is defined as ≧2 mm wide button of cells at the bottom of each sample well, or obvious turbidity in the culture supernatant. Test wells were examined and scored as positive/negative for activity. A positive score for activity is based on complete inhibition of macroscopic growth of the test Pseudomonas aeruginosa.
# Streptococcus pneumoniae = Streptococcus pneumoniae assay; assay type: cell-based; details: Streptococcus pneumoniae growth; peptide 10 micrograms per ml
# Method: as §2, with “Streptococcus pneumoniae.” for “Pseudomonas aeruginosa.”, “Streptococcus pneumoniae” for “Pseudomonas aeruginosa”
# MRSA = assay: Methicillin Resistant Staphylococcus Aureus (MRSA) assay; assay type: cell-based; details: MRSA growth; peptide 10 micrograms per ml
# Method: as §2, with “MRSA.” for “Pseudomonas aeruginosa.”, “MRSA” for “Pseudomonas aeruginosa”
# MRC-5 cells = assay: Cytotoxicity testing in MRC-5 cells (CellTiter 96); assay type: cell-based, human; details: 6 days incubation
# Method: as §1
# HCMV strain AD169 = assay: HCMV plaque reduction assay in MRC-5 cells; details: HCMV in MRC-5 cells; peptide 10 micrograms per ml; 7-10 days
smiles,measurement,setting,value
Nc1ccn([C@@H]2CS[C@H](CO)O2)c(=O)n1 [3TC],% Cell viability,HepG2-2.2.15 cells,95.8%
Cc1cn([C@H]2C[C@H](N=[N+]=[N-])[C@@H](CO)O2)c(=O)[nH]c1=O [AZT],% Cell viability,CEM-SS cells,97%
same,% CPE reduction in HIV-1 infected CEM-SS cells,HIV-1IIIB,99%
"CC[C@H](C)[C@H](NC(=O)[C@H](CCCCN)NC(=O)[C@@H]1CCCN1C(=O)[C@H](CCCNC(=N)N)NC(=O)[C@@H]1CCCN1C(=O)[C@@H]1CCCN1C(=O)[C@H](CC(C)C)NC(=O)CNC(=O)[C@@H]1CCC(=O)N1)C(=O)N1CCC[C@H]1C(=O)N1CCC[C@H]1C(=O)O [Bradykinin potentiator B, Pyr-Gly-Leu-Pro-Pro-Arg-Pro-Lys-Ile-Pro-Pro-OH] ([pGlu]GLPPRPKIPP-OH)",viability at 10 micrograms per ml,[1],100%
same,"viability at 144 h, 10 micrograms per ml",[2],100%
same,viability at 144 h,[3],100%
same,% inhibition,Pseudomonas aeruginosa,0.0%
same,% inhibition,Streptococcus pneumoniae,0.0%
same,% inhibition,MRSA,0.0%
Nc1nc(O)c2ncn(COC(CO)CO)c2n1 [Ganciclovir],% Cell viability,MRC-5 cells,100%
same,% plaque reduction,HCMV strain AD169,100%
CC(C)(C)NC(=O)[C@@H]1CN(Cc2cccnc2)CCN1C[C@@H](O)C[C@@H](Cc1ccccc1)C(=O)N[C@H]1c2ccccc2C[C@H]1O [Indinavir],% Cell viability,CEM-SS cells,93%
same,% CPE reduction in HIV-1 infected CEM-SS cells,HIV-1IIIB,100%
